Read-outs that look alike come from different tables or passages of the source. A value given as a limit tells only on which side of the number the result lay.

The target in experiment [1] is T1, human Cot catalytic domain (30-397 amino acids) (Homo sapiens, UniProt P41279).
T1 construct: Purified recombinant human Cot catalytic domain (30-397 amino acids) was purchased from Cama Biosciences; purchased Cama Biosciences (so in the source)
Put plainly: High Throughput Cot Biochemical Assay (KinEASE TR-FRET). To be noted: read-out: IC50 HTRF. Summed up:
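TR-FRET (KinEASE) read-out: Eu-labelled phospho-specific antibody binds XL665-tagged STK3 peptide (1 μM) phosphorylated by 5 nM human Cot kinase domain (residues 30-397). Reaction at 400 μM ATP, pH 7.0 MOPS buffer with 10 mM MgOAc, 1 mM DTT and 0.1% DMSO.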

Experiment [2] relates to TNFα production in LPS-stimulated human monocytes. Put plainly: Cot Monocyte TNFα Cell Based Assay. The note with it: Homo sapiens, Monocyte, read-out: EC50 TNF. In outline: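 TNFα release quantified by two-antibody TR-FRET, normalised to unstimulated (0%) and LPS-stimulated (100%) wells. Cells got a 1 h compound exposure at 37° C in 0.5% DMSO before 4 h challenge with 50 pg/ml LPS, at 5,000 cells/well.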

[3] abbreviates: Cot KinEASE TR-FRET (HTRF) biochemical assay, 400 μM ATP.
The mark [4] stands for this setting: TNFα in LPS-stimulated human monocytes.
Where [5] appears, read: Cot biochemical HTRF (KinEASE TR-FRET) assay.
Where [6] appears, read: Cot KinEASE TR-FRET, 400 μM ATP.
The mark [7] stands for this setting: LPS-stimulated human monocytes, TNFα TR-FRET.

T1 sequence (P41279 30-397): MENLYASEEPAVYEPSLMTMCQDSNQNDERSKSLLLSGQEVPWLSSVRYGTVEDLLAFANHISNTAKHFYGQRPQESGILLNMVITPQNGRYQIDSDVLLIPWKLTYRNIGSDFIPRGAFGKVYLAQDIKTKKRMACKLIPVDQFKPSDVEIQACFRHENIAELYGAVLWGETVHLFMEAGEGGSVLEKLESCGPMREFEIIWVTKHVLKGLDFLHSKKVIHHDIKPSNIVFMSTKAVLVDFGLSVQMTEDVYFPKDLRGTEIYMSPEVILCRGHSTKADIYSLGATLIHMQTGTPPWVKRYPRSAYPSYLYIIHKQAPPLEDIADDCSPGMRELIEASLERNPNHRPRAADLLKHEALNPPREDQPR

As for `[2H]C(Nc1cc(Cl)c2ncc(C#N)c(NC3CCCC4CC43)c2c1)(c1ccc(F)cc1)c1cn(C2CC2)nn1` (stereo in doubt) [Example 250, 4-(bicyclo[4.1.0]heptan-2-ylamino)-8-chloro-6-(((S)-(1-cyclopropyl-1H-1,2,3-triazol-4-yl)(4-fluorophenyl)methyl-d)amino)quinoline-3-carbonitrile], the IC50 in experiment [1] (setting [3]) was 147 nM. Moreover, in experiment [2] (setting [4]), the EC50 stood at 993 nM.
As to `CCN1CCC(n2cc(C(Nc3cc(Cl)c4ncc(C#N)c(Nc5ccc(F)c(Cl)c5)c4c3)c3ccc(F)cc3C)nn2)CC1` (centres unmarked) [Example 885, 8-chloro-4-((3-chloro-4-fluorophenyl)amino)-6-(((1-(1-ethylpiperidin-4-yl)-1H-1,2,3-triazol-4-yl)(4-fluoro-2-methylphenyl)methyl)amino) quinoline-3-carbonitrile], the IC50 in experiment [1] (setting [5]) was found to be 9 nM. Besides, in experiment [2] (setting [4]), the concentration for a half-maximal effect (EC50) came out at 287 nM.
For `Cc1c(C#N)cccc1[C@H](Nc1cc(Cl)c2ncc(C#N)c(NCC(C)(C)C)c2c1)c1cn(C23CC(C2)C3)nn1` [Example 1108, (S)-6-(((1-(bicyclo[1.1.1]pentan-1-yl)-1H-1,2,3-triazol-4-yl)(3-cyano-2-methylphenyl)methyl)amino)-8-chloro-4-(neopentylamino) quinoline-3-carbonitrile], the IC50 in experiment [1] (setting [6]) is 4 nM. Besides, the EC50 in experiment [2] (setting [7]) came out at 31 nM.
For the compound `N#Cc1cccc([C@H](Nc2cc(Cl)c3ncc(C#N)c(Nc4cnc(F)c(F)c4)c3c2)c2c[nH]nn2)c1` [Example 424, (S)-8-chloro-6-(((3-cyanophenyl)(1H-1,2,3-triazol-4-yl)methyl)amino)-4-((5,6-difluoropyridin-3-yl)amino)quinoline-3-carbonitrile], the IC50 in experiment [1] (setting [5]) was determined as 6 nM. Moreover, the concentration giving a half-maximal response (EC50) in experiment [2] (setting [4]) came to 415 nM.
On to `CC(C)(C)CNc1c(C#N)cnc2c(C#N)cc(N[C@H](c3cn(C(C)(C)C(N)=O)nn3)c3ccccc3Cl)cc12` [Example 1021, (S)-2-(4-((2-chlorophenyl) ((3,8-dicyano-4-(neopentylamino)quinolin-6-yl)amino)methyl)-1H-1,2,3-triazol-1-yl)-2-methylpropanamide], for which, in experiment [1] (setting [6]), the IC50 was 4 nM. For the same compound, in experiment [2] (setting [7]), the EC50 was 234 nM.
In the case of `[2H][C@](Nc1cc(Cl)c2ncc(C#N)c(NC(C)(C)CO)c2c1)(c1ccc(F)cc1)c1cn(C2CC2)nn1` [Example 173, (S)-8-chloro-6-(((1-cyclopropyl-1H-1,2,3-triazol-4-yl)(4-fluorophenyl)methyl-d)amino)-4-((1-hydroxy-2-methylpropan-2-yl)amino)quinoline-3-carbonitrile], in experiment [1] (setting [3]), the IC50 amounted to 140 nM. Besides, the EC50 in experiment [2] (setting [4]) is 1850 nM.
The like results for `[2H]C(Nc1cc(Cl)c2ncc(C#N)c(NCC(C)(C)C)c2c1)(c1ccc(F)cc1)c1cn(C2CC2)cn1` (centres unmarked) [Example 344, 8-chloro-6-(((1-cyclopropyl-1H-imidazol-4-yl)(4-fluorophenyl)methyl-d)amino)-4-(neopentylamino) quinoline-3-carbonitrile] were, in that order, 89 nM and 2220 nM.
As to `C[C@@H](n1cc([C@@H](Nc2cc(Cl)c3ncc(C#N)c(Nc4cnc(F)c(F)c4)c3c2)c2ccc(F)cc2)nn1)C(F)(F)F` [Example 406, 8-chloro-4-((5,6-difluoropyridin-3-yl)amino)-6-(((S)-(4-fluorophenyl)(1-((R)-1,1,1-trifluoropropan-2-yl)-1H-1,2,3-triazol-4-yl)methyl)amino)quinoline-3-carbonitrile], in experiment [1] (setting [5]), the half-maximal inhibitory concentration (IC50) came out at 212 nM. Moreover, the EC50 in experiment [2] (setting [4]) is 4430 nM.
Take `CC(C)(C)CNc1c(C#N)cnc2c(C#N)cc(N[C@@H](c3ccccc3)c3cn(C4(C(F)(F)F)CC4)nn3)cc12` [Example 1065, (S)-4-(neopentylamino)-6-((phenyl(1-(1-(trifluoromethyl)cyclopropyl)-1H-1,2,3-triazol-4-yl)methyl)amino)quinoline-3,8-dicarbonitrile]: in experiment [1] (setting [6]), the IC50 is 22 nM. Further, the EC50 in experiment [2] (setting [7]) amounted to 237 nM.
As for `CC(C)n1cc([C@@H](Nc2cc(Cl)c3ncc(C#N)c(Nc4ccc(F)c(Cl)c4)c3c2)c2cccc(CN3CCCC3)c2)nn1` [Example 570, (S)-8-chloro-4-((3-chloro-4-fluorophenyl)amino)-6-(((1-isopropyl-1H-1,2,3-triazol-4-yl) (3-(pyrrolidin-1-ylmethyl)phenyl)methyl)amino) quinoline-3-carbonitrile], the IC50 in experiment [1] (setting [5]) stood at 13 nM. Moreover, the EC50 in experiment [2] (setting [4]) was 207 nM.
Take `COC(C)(C)CNc1c(C#N)cnc2c(Cl)cc(N[C@@H](c3ccccc3)c3cn(C4CCN(C(C)(C)C)CC4)nn3)cc12` [Example 451]: the IC50 in experiment [1] (setting [5]) worked out at 68 nM. In addition, the EC50 in experiment [2] (setting [4]) was 266 nM.
The like results for `CC(C)(C)N1CCC(n2cc([C@@H](Nc3cc(Cl)c4ncc(C#N)c(NCc5ccccc5)c4c3)c3ccc(Cl)cc3)nn2)CC1` [Example 706, (S)-4-(benzylamino)-6-(((1-(1-(tert-butyl)piperidin-4-yl)-1H-1,2,3-triazol-4-yl)(4-chlorophenyl)methyl)amino)-8-chloroquinoline-3-carbonitrile] were, in that order, 95 nM and 12800 nM.
Turning to `[2H][C@](Nc1cc(C#N)c2ncc(C#N)c(NCC(C)(C)C)c2c1)(c1ccc(F)cc1)c1cn(C2CC2)nn1` [Example 284, (S)-6-(((1-cyclopropyl-1H-1,2,3-triazol-4-yl)(4-fluorophenyl)methyl-d)amino)-4-(neopentylamino) quinoline-3,8-dicarbonitrile], the IC50 in experiment [1] (setting [3]) came to 4 nM. For the same compound, the EC50 in experiment [2] (setting [4]) stood at 52 nM.
With `CN(C)C(=O)c1cccc([C@H](Nc2cc(Cl)c3ncc(C#N)c(Nc4ccc(Cl)c(Cl)c4F)c3c2)c2c[nH]nn2)c1` [Example 573, (S)-3-(((8-chloro-3-cyano-4-((3,4-dichloro-2-fluorophenyl)amino)quinolin-6-yl)amino)(1H-1,2,3-triazol-4-yl)methyl)-N,N-dimethylbenzamide], in experiment [1] (setting [5]), the IC50 worked out at 10 nM. The EC50 in experiment [2] (setting [4]) is 462 nM.
The like results for `N#Cc1cnc2c(Cl)cc(NC(c3ccc(F)cc3)c3csnn3)cc2c1Nc1ccc(F)c(Cl)c1` (centres unmarked) [Example 784, 8-chloro-4-((3-chloro-4-fluorophenyl)amino)-6-(((4-fluorophenyl)(1,2,3-thiadiazol-4-yl)methyl)amino)quinoline-3-carbonitrile] were, in that order, 249 nM and 1990 nM.
Take `CCN1CCC(n2cc([C@@H](Nc3cc(Cl)c4ncc(C#N)c(Nc5ccc(F)c(Cl)c5)c4c3)c3cccc(C(=O)N(C)C)c3)nn2)CC1` [Compound 41]: in experiment [1] (setting [3]), the IC50 stood at 1 nM. For the same compound, the EC50 in experiment [2] (setting [4]) amounted to 74 nM.
As to `C[C@@H](Nc1c(C#N)cnc2c(Cl)cc(N[C@@H](c3ccc(Cl)cc3)c3cn(C4CCN(C(C)(C)C)CC4)nn3)cc12)c1ccccc1` [Example 704, 6-(((S)-(1-(1-(tert-butyl)piperidin-4-yl)-1H-1,2,3-triazol-4-yl)(4-chlorophenyl)methyl)amino)-8-chloro-4-(((R)-1-phenylethyl)amino)quinoline-3-carbonitrile], in experiment [1] (setting [5]), the IC50 is 37 nM. Also, the EC50 in experiment [2] (setting [4]) was 3510 nM.
The like results for `CCN1CC(n2cc([C@@H](Nc3cc(Cl)c4ncc(C#N)c(Nc5ccc(F)c(Cl)c5)c4c3)c3ccccc3)nn2)CC(F)(F)C1` (stereo partly drawn) [Example 745, 8-chloro-4-((3-chloro-4-fluorophenyl)amino)-6-(((1S)-(1-(1-ethyl-5,5-difluoropiperidin-3-yl)-1H-1,2,3-triazol-4-yl)(phenyl)methyl)amino) quinoline-3-carbonitrile] were, in that order, 70 nM and 615 nM.
Consider `[2H][C@](Nc1cc(Cl)c2ncc(C#N)c(Nc3cnc(F)c(F)c3)c2c1)(c1ccc(F)cc1)c1cn(C2(C(F)(F)F)CC2)nn1` [Example 371, (S)-8-chloro-4-((5,6-difluoropyridin-3-yl)amino)-6-(((4-fluorophenyl)(1-(1-(trifluoromethyl)cyclopropyl)-1H-1,2,3-triazol-4-yl)methyl-d)amino)quinoline-3-carbonitrile], for which the half-inhibitory concentration (IC50) in experiment [1] (setting [3]) was 154 nM. Also, the EC50 in experiment [2] (setting [4]) is 877 nM.
For `Cc1ccccc1CNc1c(C#N)cnc2c(Cl)cc(N[C@@H](c3ccc(Cl)cc3)c3cn(C4CCN(C(C)(C)C)CC4)nn3)cc12` [Example 680, (S)-6-(((1-(1-(tert-butyl)piperidin-4-yl)-1H-1,2,3-triazol-4-yl)(4-chlorophenyl)methyl)amino)-8-chloro-4-((2-methylbenzyl)amino)quinoline-3-carbonitrile], the IC50 in experiment [1] (setting [5]) is 44 nM. Moreover, the EC50 in experiment [2] (setting [4]) came out at 6750 nM.
The like results for `CC(C)n1cc([C@@H](Nc2cc(Cl)c3ncc(C#N)c(Nc4ccc(F)c(Cl)c4)c3c2)c2cccc(N3CCCC3=O)c2)nn1` [Example 549, (S)-8-chloro-4-((3-chloro-4-fluorophenyl)amino)-6-(((1-isopropyl-1H-1,2,3-triazol-4-yl) (3-(2-oxopyrrolidin-1-yl)phenyl)methyl)amino) quinoline-3-carbonitrile] were, in that order, 3 nM and 650 nM.
`[2H][C@](Nc1cc(C(C)O)c2ncc(C#N)c(NCC(C)(C)C)c2c1)(c1ccc(F)cc1)c1cn(C2CC2)nn1` (some centres unmarked) [Compound 29]: the IC50 in experiment [1] (setting [3]) was found to be 217 nM. For the same compound, the concentration for a half-maximal effect (EC50) in experiment [2] (setting [4]) was over 1000 nM.

As usually defined, the IC50 is the concentration that inhibits the measured activity by half. Broadly, the EC50 is the midpoint of the concentration-response curve.

The record behind these values is patent US10316017B2, “COT modulators and methods of use thereof” (Gilead Sciences, Inc., priority 2015, dated 2019).
